Source: patent US10646488B2 (Araxes Pharma LLC, priority 2016, dated 2020)

Biological target: T1, KRAS G12C 1-169, his-tagged protein, GDP-loaded (Homo sapiens, UniProt P01116, G12C)
T1 construct: KRAS G12C 1-169, his-tagged protein, GDP-loaded
Assay: Covalent binding (% modification) to KRAS G12C by mass spectrometry; also: test concentration or dose not given here

[1] = covalent binding to KRAS G12C after a three minute incubation period
[2] = covalent binding to KRAS G12C after a ten minute incubation period

Row | Compound | Binding % [1] | Binding % [2]
1 | C=CC(=O)N1C[C@H](C)N(c2nc(N3CC(N(C)C4CC4)C3)nc3c(F)c(-c4c(O)cccc4F)c(Cl)cc23)C[C@H]1C [Compound 106, 1-((2R,5S)-4-(6-chloro-2-(3-(cyclopropyl (methyl)amino)azetidin-1-yl)-8-fluoro-7-(2-fluoro-6-hydroxyphenyl)quinazolin-4-yl)-2,5-dimethyl-piperazin-1-yl) prop-2-en-1-one] | ++ (++ indicates binding activity from 50 to 90%) | 
2 | C=CC(=O)N1CCN(c2nc(N)nc3c(F)c(-c4c(C)ccc5[nH]ncc45)c(Cl)cc23)[C@@H](C)C1 [Compound 10, 1-((3S)-4-(2-amino-6-chloro-8-fluoro-7-(5-methyl-1H-indazol-4-yl)quinazolin-4-yl)-3-methyl-piperazin-1-yl) prop-2-en-1-one] |  | +++ (+++ indicates binding activity greater than 90%)
3 | C=CC(=O)N1C[C@H](C)N(c2nc(OCCN3CC(F)(F)C3)nc3c(F)c(-c4c(O)cccc4F)c(Cl)cc23)C[C@H]1C (atropisomer, axis not shown) [Compound 83, 1-((2R,5S)-4-((R)-6-chloro-2-(2-(3,3-difluoroazetidin-1-yl)ethoxy)-8-fluoro-7-(2-fluoro-6-hydroxyphenyl)quinazolin-4-yl)-2,5-dimethyl-piperazin-1-yl) prop-2-en-1-one] |  | + (+ indicates binding activity up to 50%)
4 | C=CC(=O)N1C[C@@H](C)N(c2nc(N)nc3c(F)c(-c4cc(O)cc5ccccc45)c(Cl)cc23)[C@@H](C)C1 [Compound 18, 1-((3S,5R)-4-(2-amino-6-chloro-8-fluoro-7-(3-hydroxynaphthalen-1-yl)quinazolin-4-yl)-3,5-dimethyl-piperazin-1-yl) prop-2-en-1-one] |  | ++ (++ indicates binding activity from 50 to 90%)
5 | C=CC(=O)N1C[C@H](C)N(c2nc(Oc3ccnn3C)nc3c(F)c(-c4c(O)cccc4F)c(Cl)cc23)C[C@H]1C [Compound 208, 1-((2R,5S)-4-(6-chloro-8-fluoro-7-(2-fluoro-6-hydroxyphenyl)-2-((1-methyl-1H-pyrazol-5-yl)oxy)quinazolin-4-yl)-2,5-dimethyl-piperazin-1-yl) prop-2-en-1-one] | +++ (+++ indicates binding activity greater than 90%) | 
6 | C[C@@H]1CN(c2nc(N3CC(N(C)C)C3)nc3c(F)c(-c4c(O)cccc4F)c(Cl)cc23)[C@@H](C)CN1C(=O)C#CCO [Compound 113, 1-((2R,5S)-4-(6-chloro-2-(3-(dimethylamino)azetidin-1-yl)-8-fluoro-7-(2-fluoro-6-hydroxyphenyl)quinazolin-4-yl)-2,5-dimethyl-piperazin-1-yl)-4-hydroxybut-2-yn-1-one] | +++ (+++ indicates binding activity greater than 90%) | 
7 | C=CC(=O)N1C[C@H](C)N(c2nc(N3CC(N(C)C)C3)nc3c(F)c(-c4cc5ccccc5cc4O)c(Cl)cc23)C[C@H]1C [Compound 146, 1-((2R,5S)-4-(6-chloro-2-(3-(dimethylamino)azetidin-1-yl)-8-fluoro-7-(3-hydroxynaphthalen-2-yl)quinazolin-4-yl)-2,5-dimethyl-piperazin-1-yl) prop-2-en-1-one] | + (+ indicates binding activity greater than 0% and up to 50%) | 
8 | C=CC(=O)N1C[C@H](C)N(c2nc(OCCCN(C)C)nc3c(F)c(-c4c(O)cccc4F)c(C(F)(F)F)cc23)C[C@H]1C [Compound 218, 1-((2R,5S)-4-(2-(3-(dimethylamino)propoxy)-8-fluoro-7-(2-fluoro-6-hydroxyphenyl)-6-(trifluoromethyl)quinazolin-4-yl)-2,5-dimethyl-piperazin-1-yl) prop-2-en-1-one] | +++ (+++ indicates binding activity greater than 90%) | 
9 | C=CC(=O)N1C[C@H](C)N(c2nc(N3CC(N(C)C4CCC4)C3)nc3c(F)c(-c4c(O)cccc4F)c(Cl)cc23)C[C@H]1C (atropisomer, axis not shown) [Compound 138, 1-((2R,5S)-4-(6-chloro-2-(3-(cyclobutyl (methyl)amino)azetidin-1-yl)-8-fluoro-7-((S)-2-fluoro-6-hydroxyphenyl)quinazolin-4-yl)-2,5-dimethyl-piperazin-1-yl) prop-2-en-1-one] | +++ (+++ indicates binding activity greater than 90%) | 
10 | C=CC(=O)N1C[C@H](C)N(c2nc(N3CC(N(CC)CC)C3)nc3c(F)c(-c4c(C)ccc5[nH]ncc45)c(Cl)cc23)C[C@H]1C (atropisomer, axis not shown) [Compound 151, 1-((2R,5S)-4-(6-chloro-2-(3-(diethylamino)azetidin-1-yl)-8-fluoro-7-((R)-5-methyl-1H-indazol-4-yl)quinazolin-4-yl)-2,5-dimethyl-piperazin-1-yl) prop-2-en-1-one] | +++ (+++ indicates binding activity greater than 90%) | 
11 | C=CC(=O)N1C[C@H](C)N(c2nc(N3CC4(CCCN(C5CC5)C4)C3)nc3c(F)c(-c4c(O)cccc4F)c(Cl)cc23)C[C@H]1C [Compound 195, 1-((2R,5S)-4-(6-chloro-2-(6-cyclopropyl-2,6-diazaspiro[3.5]nonan-2-yl)-8-fluoro-7-(2-fluoro-6-hydroxyphenyl)quinazolin-4-yl)-2,5-dimethyl-piperazin-1-yl) prop-2-en-1-one] | + (+ indicates binding activity greater than 0% and up to 50%) | 
12 | C=CC(=O)N1C[C@H](C)N(c2nc(N3CC4(CCOCC4)C3)nc3c(F)c(-c4c(O)cccc4F)c(Cl)cc23)C[C@H]1C [Compound 159, 1-((2R,5S)-4-(6-chloro-8-fluoro-7-(2-fluoro-6-hydroxyphenyl)-2-(7-oxa-2-azaspiro[3.5]nonan-2-yl)quinazolin-4-yl)-2,5-dimethyl-piperazin-1-yl) prop-2-en-1-one] | ++ (++ indicates binding activity from 50 to 90%) | 
13 | C=CC(=O)N1C[C@H](C)N(c2nc(N3CC(C)(N(C)C)C3)nc3c(F)c(-c4c(C)ccc5[nH]ncc45)c(Cl)cc23)C[C@H]1C [Compound 121, 1-((2R,5S)-4-(6-chloro-2-(3-(dimethylamino)-3-methylazetidin-1-yl)-8-fluoro-7-(5-methyl-1H-indazol-4-yl)quinazolin-4-yl)-2,5-dimethyl-piperazin-1-yl) prop-2-en-1-one] | ++ (++ indicates binding activity from 50 to 90%) | 
14 | C=CC(=O)N1C[C@H](C)N(c2nc(N3CC(N(CC)CC)C3)nc3c(F)c(-c4c(O)cccc4F)c(Cl)cc23)C[C@H]1C [Compound 126, 1-((2R,5S)-4-(6-chloro-2-(3-(diethylamino)azetidin-1-yl)-8-fluoro-7-(2-fluoro-6-hydroxyphenyl)quinazolin-4-yl)-2,5-dimethyl-piperazin-1-yl) prop-2-en-1-one] | +++ (+++ indicates binding activity greater than 90%) | 
15 | C=CC(=O)N1C[C@H](C)N(c2nc(N3CC(N(C)C)C3)nc3c(F)c(-c4cc(O)cc5ccccc45)c(Cl)cc23)C[C@H]1C (atropisomer, axis not shown) [Compound 219, 1-((2R,5S)-4-(6-chloro-2-(3-(dimethylamino)azetidin-1-yl)-8-fluoro-7-((S)-3-hydroxynaphthalen-1-yl)quinazolin-4-yl)-2,5-dimethyl-piperazin-1-yl) prop-2-en-1-one] | +++ (+++ indicates binding activity greater than 90%) | 
16 | CC(C)/C=C(\C#N)C(=O)N1C[C@H](C)N(c2nc(N3CC(N(C)C)C3)nc3c(F)c(-c4c(O)cccc4F)c(Cl)cc23)C[C@H]1C [Compound 101, (E)-2-((2R,5S)-4-(6-chloro-2-(3-(dimethylamino)azetidin-1-yl)-8-fluoro-7-(2-fluoro-6-hydroxyphenyl)quinazolin-4-yl)-2,5-dimethyl-piperazine-1-carbonyl)-4-methylpent-2-enenitrile] | + (+ indicates binding activity greater than 0% and up to 50%) | 
17 | C=CC(=O)N1[C@H](C)CN(c2nc(N3CC(O)C3)nc3c(F)c(-c4c(O)cccc4F)c(Cl)cc23)C[C@@H]1C [Compound 35, 1-((2R,6S)-4-(6-chloro-8-fluoro-7-(2-fluoro-6-hydroxyphenyl)-2-(3-hydroxy-azetidin-1-yl)quinazolin-4-yl)-2,6-dimethyl-piperazin-1-yl) prop-2-en-1-one] |  | ++ (++ indicates binding activity from 50 to 90%)
18 | C=CC(=O)N1C[C@H](C)N(c2nc(O)nc3c(F)c(-c4c(O)cccc4F)c(Cl)cc23)C[C@H]1C [Compound 51, 1-((2R,5S)-4-(6-chloro-8-fluoro-7-(2-fluoro-6-hydroxyphenyl)-2-hydroxy-quinazolin-4-yl)-2,5-dimethyl-piperazin-1-yl) prop-2-en-1-one] |  | + (+ indicates binding activity up to 50%)
19 | C=CC(=O)N1C[C@H](C)N(c2nc(N3CC(NC)C3)nc3c(F)c(-c4c(C)ccc5cn[nH]c45)c(Cl)cc23)C[C@H]1C [Compound 100, 1-((2R,5S)-4-(6-chloro-8-fluoro-7-(6-methyl-1H-indazol-7-yl)-2-(3-(methylamino)azetidin-1-yl)quinazolin-4-yl)-2,5-dimethyl-piperazin-1-yl) prop-2-en-1-one] | ++ (++ indicates binding activity from 50 to 90%) | 
20 | C=CC(=O)N1C[C@H](C)N(c2nc(N3CC(NC)C3)nc3c(F)c(-c4c(O)cccc4F)c(Cl)cc23)C[C@H]1C [Compound 96, 1-((2R,5S)-4-(6-chloro-8-fluoro-7-(2-fluoro-6-hydroxyphenyl)-2-(3-(methylamino)azetidin-1-yl)quinazolin-4-yl)-2,5-dimethyl-piperazin-1-yl) prop-2-en-1-one] | +++ (+++ indicates binding activity greater than 90%) | 
21 | C=CC(=O)N1C[C@H](C)N(c2nc(N3CC4(COC4)C3)nc3c(F)c(-c4c(O)cccc4F)c(Cl)cc23)C[C@H]1C [Compound 192, 1-((2R,5S)-4-(6-chloro-8-fluoro-7-(2-fluoro-6-hydroxyphenyl)-2-(2-oxa-6-azaspiro[3.3]heptan-6-yl)quinazolin-4-yl)-2,5-dimethyl-piperazin-1-yl) prop-2-en-1-one] | ++ (++ indicates binding activity from 50 to 90%) | 
22 | C=CC(=O)N1C[C@H](C)N(c2nc(Oc3cn[nH]c3)nc3c(F)c(-c4c(O)cccc4F)c(Cl)cc23)C[C@H]1C [Compound 222, 1-((2R,5S)-4-(2-(1H-pyrazol-4-yloxy)-6-chloro-8-fluoro-7-(2-fluoro-6-hydroxy-phenyl)quinazolin-4-yl)-2,5-dimethyl-piperazin-1-yl) prop-2-en-1-one] | ++ (++ indicates binding activity from 50 to 90%) | 
